Measured values from patent publication US20160158200A1, “Combinations of Hepatitis C Virus Inhibitors” (priority 2013, published 2016).

These compounds were tested on HCV genotype-1a variant with glutamine 30 changed to glutamate in the NS5A protein. Conditions: test compound titrated with BMS-790052 fixed at 200 nM; genotype 1a Q30E replicon.
Type: cell-based
Outline: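 Synergy was assessed by combining several fixed amounts of an NS5A-targeting compound with a titration of the second compound of interest.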

Compound	Fold-Synergistic 1a (Q30E)
CC(C)(C)[C@H](NC(=O)C1CCC(F)(F)CC1)c1ncc(-c2ccc(-c3ccc(-c4cnc([C@@H](NC(=O)C5CCC(F)(F)CC5)C(C)(C)C)[nH]4)s3)cc2)[nH]1 [Compound B57]	>100 fold
CC(C)CC(=O)N[C@H](c1nc(-c2ccc(-c3ccc(-c4nc([C@@H](NC(=O)CC(C)C)C(C)C)[nH]c4Cl)cc3)cc2)c(Cl)[nH]1)C(C)C [Compound P-48]	>100 fold
CC(C)[C@H](NC(=O)C(C)(C)F)c1ncc(-c2ccc3c(c2)CCc2cc(-c4cnc([C@@H](NC(=O)C(C)(C)F)C(C)C)[nH]4)ccc2-3)[nH]1.O=C(O)C(F)(F)F [Compound N-75]	>100 fold
CC(C)(C)[C@H](NC(=O)C1CCC2(CC1)CC2)c1nc(-c2ccc(-c3ccc(-c4c[nH]c([C@@H](NC(=O)C5CCC6(CC5)CC6)C(C)(C)C)n4)cc3)cc2)c[nH]1 (stereo partly shown) [Compound N-123]	>100 fold
CCCCOC(=O)N1CCC[C@H]1c1ncc(-c2ccc(-c3ccc(-c4cnc([C@@H]5CCCN5C(=O)OCCCC)[nH]4)cc3)cc2)[nH]1 [Compound S-219]	>10 fold
CC(C)[C@H](NC(=O)c1cc(Cl)cs1)c1ncc(-c2ccc(-c3ccc(-c4cnc([C@@H](NC(=O)c5cc(Cl)cs5)C(C)C)[nH]4)cc3)cc2)[nH]1 [Compound P-90]	>100 fold
CC1([C@H](NC(=O)C(=O)N2CCCCCC2)c2nc(-c3ccc(-c4ccc(-c5c[nH]c([C@@H](NC(=O)C(=O)N6CCCCCC6)C6(C)CC6)n5)cc4)cc3)c[nH]2)CC1 [Compound W-57]	>100 fold
CC(C)(C)[C@H](NC(=O)C(=O)N1CC(F)(F)C1)c1nc(-c2ccc(-c3ccc(-c4c[nH]c([C@@H](NC(=O)C(=O)N5CC(F)(F)C5)C(C)(C)C)n4)cc3)cc2)c[nH]1 [Compound W-28]	>100 fold
CC(C)(C)C(NC(=O)C(C)(O)C(F)(F)F)c1nc(-c2ccc(-c3ccc(-c4c[nH]c(C(NC(=O)C(C)(O)C(F)(F)F)C(C)(C)C)n4)cc3)cc2)c[nH]1.O=C(O)C(F)(F)F.O=C(O)C(F)(F)F (single isomer, unassigned) [Compound L-66b]	>100 fold
Cc1ccccc1C(=O)N[C@H](c1ncc(-c2ccc(-c3ccc(-c4cnc([C@@H](NC(=O)c5ccccc5C)C(C)C)[nH]4)cc3)cc2)[nH]1)C(C)C [Compound S-70]	>100 fold
CC(C)(C(=O)N[C@H](c1ncc(-c2ccc(-c3ccc(-c4cnc([C@@H](NC(=O)C(C)(C)C5CCCC5)C(C)(C)C)[nH]4)cc3)cc2)[nH]1)C(C)(C)C)C1CCCC1 [Compound B82]	>100 fold
CC(C)(C(=O)N[C@H](c1nc(-c2ccc(-c3ccc(-c4c[nH]c([C@@H](NC(=O)C(C)(C)C(O)c5ccccc5)C(C)(C)C)n4)cc3)cc2)c[nH]1)C(C)(C)C)C(O)c1ccccc1 (single isomer, unassigned) [Compound N-127B]	>100 fold
CC(C)(C)[C@H](NC(=O)C1CCC(F)(F)CC1)c1ncc(-c2ccc3cc(-c4ccc5nc([C@@H](NC(=O)C6CCC(F)(F)CC6)C(C)(C)C)[nH]c5c4)ccc3c2)[nH]1 [Compound B53]	>100 fold
Cc1cc(C(=O)N[C@H](c2ncc(-c3ccc(-c4ccc(-c5cnc([C@@H](NC(=O)c6cc(C)oc6C(F)(F)F)C(C)C)[nH]5)cc4)cc3)[nH]2)C(C)C)c(C(F)(F)F)o1 [Compound S-102]	>100 fold
COCC1(C(=O)N[C@H](c2nc(-c3ccc(-c4ccc(-c5c[nH]c([C@@H](NC(=O)C6(COC)CCC6)C(C)(C)C)n5)cc4)cc3)c[nH]2)C(C)(C)C)CCC1 [Compound N-59]	>100 fold
O=C(c1cccc2ccccc12)N1CCC[C@H]1c1ncc(-c2ccc(-c3ccc(-c4cnc([C@@H]5CCCN5C(=O)c5cccc6ccccc56)[nH]4)cc3)cc2)[nH]1 [Compound S-119]	>10 fold
